Experiment [1] addresses T1, NS3-NS4 (Hepatitis C virus genotype 1a, UniProt P27958). Put plainly: cell-based. To be noted: EC50, NS3-NS4 activity.
The target in experiment [2] is T1, NS3-NS4. Description: NS3-NS4 activity, IC50 (Example 37, Table 8). The class given is biochemical.

T1 sequence (P27958 1027-1657): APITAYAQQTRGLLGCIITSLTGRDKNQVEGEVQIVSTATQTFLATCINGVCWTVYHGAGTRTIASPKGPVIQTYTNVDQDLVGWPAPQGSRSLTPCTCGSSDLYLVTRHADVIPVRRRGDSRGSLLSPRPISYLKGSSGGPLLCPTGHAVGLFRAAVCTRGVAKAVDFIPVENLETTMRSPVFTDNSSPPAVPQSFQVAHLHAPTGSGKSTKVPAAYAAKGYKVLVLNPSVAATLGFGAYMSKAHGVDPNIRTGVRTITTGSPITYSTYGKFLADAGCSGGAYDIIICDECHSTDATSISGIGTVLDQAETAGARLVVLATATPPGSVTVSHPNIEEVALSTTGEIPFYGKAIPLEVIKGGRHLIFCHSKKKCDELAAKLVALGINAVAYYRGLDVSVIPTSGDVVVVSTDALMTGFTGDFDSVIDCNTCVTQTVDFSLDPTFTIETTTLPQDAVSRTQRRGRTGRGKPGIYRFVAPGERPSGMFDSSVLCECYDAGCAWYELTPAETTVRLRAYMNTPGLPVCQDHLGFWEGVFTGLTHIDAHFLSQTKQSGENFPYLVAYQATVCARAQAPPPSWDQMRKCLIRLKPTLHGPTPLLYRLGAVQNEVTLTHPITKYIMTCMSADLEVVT
T1 sequence (P27958 1658-1711): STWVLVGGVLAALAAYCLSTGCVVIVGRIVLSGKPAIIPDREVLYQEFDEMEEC

A word on the EC50: it is the concentration giving half of the maximal effect. Higher therefore signals lower potency in that assay. Broadly, the IC50 is the concentration needed to halve the response being measured. Low values mean greater potency in that assay, high ones weaker potency in that assay. Take `CN(Cc1ccccc1)C(=O)N[C@H]1CCCCC/C=C\[C@@H]2C[C@@]2(C(=O)NS(=O)(=O)C2CC2)NC(=O)[C@@H]2C[C@@H](OC(=O)N3Cc4cccc(F)c4C3)CN2C1=O` [Compound 421]: at NS3-NS4 [1], the half-maximal effective concentration (EC50) is less than 100 nM. On NS3-NS4 [2], the half-inhibitory concentration (IC50) is less than 100 nM.
`O=C1N[C@]2(C(=O)NS(=O)(=O)C3CC3)C[C@H]2/C=C\CCCCC[C@H](NC(=O)N2Cc3ccccc3C2)C(=O)N2C[C@H](OC(=O)N3Cc4cccc(F)c4C3)C[C@@H]12` [Compound 422] yielded an EC50 on NS3-NS4 [1] of 100 to 1000 nM. Further, the IC50 against NS3-NS4 [2] is less than 100 nM.
For the compound `CCN(C(=O)N[C@H]1CCCCC/C=C\[C@@H]2C[C@@]2(C(=O)NS(=O)(=O)C2CC2)NC(=O)[C@@H]2C[C@@H](OC(=O)N3Cc4cccc(F)c4C3)CN2C1=O)C(C)(C)C` [Compound 423], the concentration giving a half-maximal response (EC50) on NS3-NS4 [1] was less than 100 nM. Further, the half-maximal inhibitory concentration (IC50) against NS3-NS4 [2] is less than 100 nM.
For the compound `CN(C(=O)N[C@H]1CCCCC/C=C\[C@@H]2C[C@@]2(C(=O)NS(=O)(=O)C2CC2)NC(=O)[C@@H]2C[C@@H](OC(=O)N3Cc4cccc(Cl)c4C3)CN2C1=O)C(C)(C)C` [Compound 424], the 50% effective concentration (EC50) at NS3-NS4 [1] is less than 100 nM. Further, the IC50 against NS3-NS4 [2] is less than 100 nM.
In turn, `CN(C(=O)N[C@H]1CCCCC/C=C\[C@@H]2C[C@@]2(C(=O)NS(=O)(=O)C2CC2)NC(=O)[C@@H]2C[C@@H](OC(=O)N3Cc4cccc(F)c4C3)CN2C1=O)C1CCCC1` [Compound 425] gave an EC50 on NS3-NS4 [1] of less than 100 nM. Moreover, the IC50 against NS3-NS4 [2] is less than 100 nM.
At NS3-NS4 [1], `O=C(N[C@H]1CCCCC/C=C\[C@@H]2C[C@@]2(C(=O)NS(=O)(=O)C2CC2)NC(=O)[C@@H]2C[C@@H](OC(=O)N3Cc4cccc(F)c4C3)CN2C1=O)OC1CCC1` [Compound 427] gave an EC50 of less than 100 nM. At NS3-NS4 [2], this compound gave an IC50 of less than 100 nM.
In the case of `O=C(N[C@H]1CCCCC/C=C\[C@@H]2C[C@@]2(C(=O)NS(=O)(=O)C2CC2)NC(=O)[C@@H]2C[C@@H](OC(=O)N3Cc4cccc(F)c4C3)CN2C1=O)OC(C1CC1)C1CC1` [Compound 428], at NS3-NS4 [1], the EC50 lay in the range of 100 to 1000 nM. In addition, the IC50 against NS3-NS4 [2] was less than 100 nM.
As to `O=C(N[C@H]1CCCCC/C=C\[C@@H]2C[C@@]2(C(=O)NS(=O)(=O)C2CC2)NC(=O)[C@@H]2C[C@@H](OC(=O)N3Cc4cccc(F)c4C3)CN2C1=O)OCC1CCC1` [Compound 430], the EC50 on NS3-NS4 [1] is less than 100 nM. Further, the 50% inhibitory concentration (IC50) on NS3-NS4 [2] was less than 100 nM.
On to `O=C(N[C@H]1CCCCC/C=C\[C@@H]2C[C@@]2(C(=O)NS(=O)(=O)C2CC2)NC(=O)[C@@H]2C[C@@H](OC(=O)N3Cc4cccc(Cl)c4C3)CN2C1=O)OC1CCC1` [Compound 433], for which the concentration for a half-maximal effect (EC50) on NS3-NS4 [1] was less than 100 nM. The compound further showed an IC50 at NS3-NS4 [2] of less than 100 nM.
On to `O=C(N[C@H]1CCCCC/C=C\[C@@H]2C[C@@]2(C(=O)NS(=O)(=O)C2CC2)NC(=O)[C@@H]2C[C@@H](OC(=O)N3Cc4cccc(F)c4C3)CN2C1=O)OCC1CC1` [Compound 434], for which, at NS3-NS4 [1], the half-maximal effective concentration (EC50) was less than 100 nM. This compound had an IC50 at NS3-NS4 [2] of less than 100 nM.
For `CC1(COC(=O)N[C@H]2CCCCC/C=C\[C@@H]3C[C@@]3(C(=O)NS(=O)(=O)C3CC3)NC(=O)[C@@H]3C[C@@H](OC(=O)N4Cc5cccc(F)c5C4)CN3C2=O)CC1` [Compound 435], the EC50 on NS3-NS4 [1] was less than 100 nM. The same compound displayed a 50% inhibitory concentration (IC50) against NS3-NS4 [2] of less than 100 nM.
`CC(C)COC(=O)N[C@H]1CCCCC/C=C\[C@@H]2C[C@@]2(C(=O)NS(=O)(=O)C2CC2)NC(=O)[C@@H]2C[C@@H](OC(=O)N3Cc4cccc(F)c4C3)CN2C1=O` [Compound 436] gave an EC50 on NS3-NS4 [1] of less than 100 nM. Moreover, the IC50 on NS3-NS4 [2] is less than 100 nM.
In the case of `CC(C)CN(C)C(=O)N[C@H]1CCCCC/C=C\[C@@H]2C[C@@]2(C(=O)NS(=O)(=O)C2CC2)NC(=O)[C@@H]2C[C@@H](OC(=O)N3Cc4cccc(F)c4C3)CN2C1=O` [Compound 437], at NS3-NS4 [1], the concentration for a half-maximal effect (EC50) was less than 100 nM. Further, the half-maximal inhibitory concentration (IC50) against NS3-NS4 [2] is less than 100 nM.
In turn, `CN(C(=O)N[C@H]1CCCCC/C=C\[C@@H]2C[C@@]2(C(=O)NS(=O)(=O)C2(C)CC2)NC(=O)[C@@H]2C[C@@H](OC(=O)N3Cc4cccc(F)c4C3)CN2C1=O)C(C)(C)C` [Compound 440] returned an EC50 on NS3-NS4 [1] of less than 100 nM. Also, at NS3-NS4 [2], the IC50 was less than 100 nM.

Values taken from patent US20090155209A1, “NOVEL MACROCYCLIC INHIBITORS OF HEPATITIS C VIRUS REPLICATION” (priority 2007, published 2009).
